Data set [1] concerns EO771. Kind of data set: Inhibition of mammary carcinoma cell line EO771. The class given is cell-based, mouse (C57BL/6). To be noted: Mus musculus; Table 5; EO771, C57BL/6, Basal, HER2−. Here is the method:
3-(4,5-Dimethylthiazol-2-yl)-2,5-diphenyltetrazolium Bromide (MTT) Cell Proliferation Assay. To cells grown in 96-well-tissue culture plate, 20 μl/well of MTT solution (5 mg/ml in PBS) was added. After 1-2 hours incubation at 37° C., the plate was centrifuged. Supernatant was discarded and 100 μl DMSO was added to dissolve water insoluble formazan, and the absorbance was read at 540 nm with a plate reader.

Data set [2] deals with MCF-7 tumors. The data set can be described thus: MCF-7 ER+ mammary tumor model. The class given is in vivo, mice.
In data set [3] the target is CYP3A4 (Homo sapiens, UniProt P08684). Set-up: purchased Corning; host or cells: insect cells (microsomes). As to conditions: inhibiting EET biosynthesis; background statement; cited from earlier work.
Data set [4] concerns MCF-7 cells. The data set can be described thus: Mitochondrial swelling, JC-1 confocal imaging in MCF-7 cells. The class given is cell-based, human. To be noted: 10 μM, FIG. 5. How it is done: FIG. 5. Mitochondrial swelling by HCB treatment in MCF-7 cells. MCF-7 cells were seeded at 30,000 cells/well into a chambered coverslip and treated with HCB or DMSO for 2 hours. JC-1 potential sensitive dye was added to a final concentration of 20 μM and incubation continued for an additional half an hour. Cell was then washed and imaged with a confocal microscope. Active mitochondria are stained yellow to orange. White arrows indicate swollen mitochondria.

Data set [5] concerns ERα. The data set can be described thus: Nuclear translocation of ERα in MCF-7 cells. To be noted: 10 μM, 2 hours, FIG. 6. Type of data set: cell-based, human. Here is the method:
FIG. 6. […] A. representative images (Blue: nuclei; Red: ERα) from an experiment. B. Percentage change of nuclear ERα density normalized to nuclear DNA stained by Hoechst. MCF-7 cells (1.5×10^4 cells/well) were seeded on uSlide (8 wells, Ibidi, cat #80826) and cultured with complete culture medium (MEM medium with Earle's salts & L-glutamine) containing 10% FBS, 10 mM HEPES, 2 mM glutamine and 100 U penicillin and 100 U streptomycin for almost 70 hours. Then the cells were starved in serum, phenol red and antibiotics free MEM medium for almost 16 hours, followed with HCB (10 μM) or vehicle (0.01% DMSO) treatment for 2 hours in starvation medium. Then the cells were fixed, permeabilized and probed with monoclonal antibody against ERα (Abcam, Cat #16660, primary antibody) and Texas Red-conjugated goat anti rabbit IgG (Thermo Fisher Scientific, Cat #T-6391, secondary antibody). Nuclei were stained with Hoechst dye (Thermo Scientific, Cat #62249). The nuclear ERαas were analyzed with confocal microscopy. Four sites per well were selected randomly for collecting the image data. The density of fluorescence was measured by ImageJ. […] Intensities of lights in each ROI were measured in the blue channel (nuclei) and red (Texas red, estrogen receptor α) channel. […] Results normalized to control are expressed as means±S.D. (n=7). […]

Data set [6] addresses T1, CYP2C8 (Homo sapiens, UniProt P10632).
T1 construct: purchased Corning; host or cells: insect cells (microsomes)
T1 sequence (P10632 1-490): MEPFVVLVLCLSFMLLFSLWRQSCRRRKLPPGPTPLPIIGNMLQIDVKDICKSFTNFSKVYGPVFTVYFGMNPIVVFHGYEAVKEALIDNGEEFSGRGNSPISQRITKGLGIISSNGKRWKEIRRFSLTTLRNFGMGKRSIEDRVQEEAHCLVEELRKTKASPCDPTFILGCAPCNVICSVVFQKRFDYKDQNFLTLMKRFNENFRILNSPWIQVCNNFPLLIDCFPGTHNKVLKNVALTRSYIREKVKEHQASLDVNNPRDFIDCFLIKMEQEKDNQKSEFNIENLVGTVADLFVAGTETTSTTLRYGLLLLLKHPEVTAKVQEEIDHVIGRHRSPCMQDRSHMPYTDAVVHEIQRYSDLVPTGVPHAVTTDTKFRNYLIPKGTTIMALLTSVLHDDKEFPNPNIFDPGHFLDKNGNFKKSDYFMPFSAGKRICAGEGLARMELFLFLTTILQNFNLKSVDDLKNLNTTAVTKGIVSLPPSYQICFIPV
Kind of data set: CYP2C8-mediated arachidonic acid epoxygenase EET biosynthesis. The class given is biochemical. Here is the method: Recombinant Microsomal CYP-mediated EET Biosynthesis. CYP Supersomes™ (Corning, NY) (1 μM, final concentration) were incubated at 37° C. for 30 min in the presence of AA (120 μM) in 50 μl potassium phosphate buffer, (50 mM, pH 7.4), containing 1 mM EDTA and 1 mM NADPH. Reactions were terminated by addition of 50 μL of acetonitrile spiked with ^13C-EET internal standards followed by vigorous vortexing. After centrifugation at 16,000×rpm for 10 minutes to precipitate proteins and other insoluble debris and 80 μL supernatant was transferred into HPLC vials and analyzed by with an LC-ESI/MRM/MS method.
LC-ESI/MRM/MS Method for EET Measurement. EETs were measured by an LC-ESI/MRM/MS analytical method on a ThermoFisher Vantage triple quadrupole mass spectrometer (ThermoFisher, San Jose, CA) coupled with an UltiMate 3000 HPLC (ThermoFisher, San Jose, CA), using argon as the collision gas. Negative ion monitoring was performed at the following diagnostic product ions: 319 m/z→155 m/z for 8,9-EET; 319 m/z→179 m/z for 11,12-EET; 319 m/z→219 m/z for 14,15-EET; 339 m/z→163 m/z for 8,9-[^13C-20]EET; 339 m/z→233 m/z for 11,12-[^13C-20]EET; and 339 m/z→259 m/z for 14,15-[^13C-20]EET. Base-line resolution of EET regioisomers was achieved on a Phenomenex Luna C18 (2) reverse phase capillary column (250×0.5 mm, 5-μm particles) using the following mobile phase combinations: isocratic 5% B for 5 min, gradient 5-70% B for 5 min, hold at 70% for 30 min and then 95% for 10 min; A: 0.01% acetic acid in water, B: 0.01% acetic acid in acetonitrile; 10 μl/min flow rate. A standard curve was obtained by linear regression of the peak area ratio of authentic EET regioisomers against internal standards. The amount of EETs in samples was calculated according to the standard curve.

“Also recorded” adds a separate entry of the source. Where two headings read alike, the source gives them in different places.

Here are results for 2 compounds from US20240067603A1, “CUBANYL BIGUANIDE COMPOUNDS” (REGENTS OF THE UNIVERSITY OF MINNESOTA, priority 2020, published 2024).

CYP3A4, sequence (P08684 whole entry): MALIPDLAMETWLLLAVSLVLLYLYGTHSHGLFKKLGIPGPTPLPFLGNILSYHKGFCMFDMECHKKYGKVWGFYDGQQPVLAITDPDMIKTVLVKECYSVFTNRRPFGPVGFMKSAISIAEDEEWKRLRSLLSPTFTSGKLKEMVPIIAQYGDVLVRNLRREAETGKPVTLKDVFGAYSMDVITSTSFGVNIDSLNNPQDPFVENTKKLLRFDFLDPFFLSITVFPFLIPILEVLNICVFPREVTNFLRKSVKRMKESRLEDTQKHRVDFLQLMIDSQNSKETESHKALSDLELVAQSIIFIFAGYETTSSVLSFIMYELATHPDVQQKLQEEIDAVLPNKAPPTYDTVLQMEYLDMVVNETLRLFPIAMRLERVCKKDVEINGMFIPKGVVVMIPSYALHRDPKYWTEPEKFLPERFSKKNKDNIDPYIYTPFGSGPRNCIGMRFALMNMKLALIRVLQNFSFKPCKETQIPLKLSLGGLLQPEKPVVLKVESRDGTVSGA

For the compound `CCCCCCNC(=N)NC(=N)NCc1ccccc1` [HBB, N1-hexyl-N5-benzyl-biguanide], in data set [1], the IC50 came to 21.7 µM. The tumor control entry in data set [2] (subcutaneous route at the MTD, compared with other route) is “equally effective”. The “oxidative phosphorylation in ER+/HER2− MCF-7 tumors” value in data set [2] (subcutaneous, MTD) is listed as “inhibit oxidative phosphorylation”. Further, the “fold more potent than metformin” value in data set [3] was 100 fold.

As for `CCCCCCNC(=N)NC(=N)NCC12C3C4C5C3C1C5C42` (stereo not shown) [HCB, Hexyl Cubanomethyl Biguanide], the “effect on mitochondrial tubule networks” value in data set [4] is “caused loss of mitochondrial tubule networks”. The “nuclear translocation of estrogen receptor (ER-α)” value in data set [5] is “significantly decrease; also recorded: decreases nuclear translocation of ERα”. Besides, the IC50 is 31 µM in data set [6] ((±)8,9-EET, read-out: IC50, CYP2C8 biosynthesis of (±)8,9-EET); 52 µM in data set [6] ((±)11,12-EET, read-out: IC50, CYP2C8 biosynthesis of (±)11,12-EET); 42 µM in data set [6] ((±)14,15-EET, read-out: inhibition of CYP2C8-mediated biosynthesis of (±)14,15-EET). In data set [6] ((±)14,15-EET biosynthesis), the “fold lower inhibition of CYP2C8 (vs CYP3A4)” value stood at 10 fold.
